Data as given in PMC5078040 (Oncotarget, 2016).

What was measured:
Assay in all cases: KinomeScan
Type in all cases: binding
Settings in all cases: 1uM
FGFR3 = target: T1, FGFR3 (Homo sapiens, UniProt P22607)
T1 construct: purchased DiscoveRx KINOMEscan

[1] = target: T2, ABL1(Y253F)-phosphorylated (Homo sapiens, UniProt P00519, Y253F)
T2 construct: purchased DiscoveRx KINOMEscan

ERBB2 = target: T3, ERBB2 (Homo sapiens, UniProt P04626)
T3 construct: purchased DiscoveRx KINOMEscan

[2] = target: T4, ABL1(E255K)-phosphorylated (Homo sapiens, UniProt P00519, E255K)
T4 construct: purchased DiscoveRx KINOMEscan

ERK1 = target: T5, ERK1 (Homo sapiens, UniProt P27361)
T5 construct: purchased DiscoveRx KINOMEscan

DLK = target: T6, DLK (Homo sapiens, UniProt Q12852)
T6 construct: purchased DiscoveRx KINOMEscan

STK36 = target: T7, STK36 (Homo sapiens, UniProt Q9NRP7)
T7 construct: purchased DiscoveRx KINOMEscan
T7 sequence (Q9NRP7 whole entry): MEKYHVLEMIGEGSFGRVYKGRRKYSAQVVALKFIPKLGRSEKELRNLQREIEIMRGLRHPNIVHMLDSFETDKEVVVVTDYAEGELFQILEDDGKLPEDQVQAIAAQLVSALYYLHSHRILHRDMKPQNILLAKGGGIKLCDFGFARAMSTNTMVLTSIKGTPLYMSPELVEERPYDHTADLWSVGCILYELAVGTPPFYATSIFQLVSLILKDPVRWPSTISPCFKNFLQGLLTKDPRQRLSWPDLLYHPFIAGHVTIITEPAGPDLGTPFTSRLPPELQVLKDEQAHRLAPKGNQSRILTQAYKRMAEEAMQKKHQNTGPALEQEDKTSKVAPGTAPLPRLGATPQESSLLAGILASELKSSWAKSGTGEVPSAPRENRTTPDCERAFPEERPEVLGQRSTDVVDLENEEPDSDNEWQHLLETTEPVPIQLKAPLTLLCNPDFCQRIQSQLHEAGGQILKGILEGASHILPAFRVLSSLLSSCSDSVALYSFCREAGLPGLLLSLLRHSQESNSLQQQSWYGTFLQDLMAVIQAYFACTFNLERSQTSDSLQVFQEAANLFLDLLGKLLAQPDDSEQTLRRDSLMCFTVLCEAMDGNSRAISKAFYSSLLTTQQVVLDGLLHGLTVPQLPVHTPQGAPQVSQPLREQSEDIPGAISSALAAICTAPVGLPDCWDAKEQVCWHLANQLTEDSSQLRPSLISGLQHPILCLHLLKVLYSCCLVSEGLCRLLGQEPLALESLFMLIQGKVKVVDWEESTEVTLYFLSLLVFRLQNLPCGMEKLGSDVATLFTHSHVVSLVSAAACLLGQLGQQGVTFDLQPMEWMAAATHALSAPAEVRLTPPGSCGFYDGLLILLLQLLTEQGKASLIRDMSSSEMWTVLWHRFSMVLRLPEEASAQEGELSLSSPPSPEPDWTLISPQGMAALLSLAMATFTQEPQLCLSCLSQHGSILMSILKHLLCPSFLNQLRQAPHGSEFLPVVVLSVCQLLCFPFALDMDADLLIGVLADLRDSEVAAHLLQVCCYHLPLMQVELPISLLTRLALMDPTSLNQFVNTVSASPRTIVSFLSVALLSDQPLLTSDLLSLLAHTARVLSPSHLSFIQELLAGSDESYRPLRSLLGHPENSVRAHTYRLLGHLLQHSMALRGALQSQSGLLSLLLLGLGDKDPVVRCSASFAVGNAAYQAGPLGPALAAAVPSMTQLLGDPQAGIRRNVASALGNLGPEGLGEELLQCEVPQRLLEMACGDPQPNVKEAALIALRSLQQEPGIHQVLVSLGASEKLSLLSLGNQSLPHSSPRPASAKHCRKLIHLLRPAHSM

KIT(L576P) = target: T8, KIT(L576P) (Homo sapiens, UniProt P10721, L576P)
T8 construct: purchased DiscoveRx KINOMEscan

STK39 = target: T9, STK39 (Homo sapiens, UniProt Q9UEW8)
T9 construct: purchased DiscoveRx KINOMEscan

[3] = target: T10, TYK2(JH2domain-pseudokinase) (Homo sapiens, UniProt P29597)
T10 construct: TYK2(JH2domain-pseudokinase); purchased DiscoveRx KINOMEscan

[4] = target: T11, ABL1(T315I)-phosphorylated (Homo sapiens, UniProt P00519, T315I)
T11 construct: purchased DiscoveRx KINOMEscan

EPHA7 = target: T12, EPHA7 (Homo sapiens, UniProt Q15375)
T12 construct: purchased DiscoveRx KINOMEscan
T12 sequence (Q15375 28-998): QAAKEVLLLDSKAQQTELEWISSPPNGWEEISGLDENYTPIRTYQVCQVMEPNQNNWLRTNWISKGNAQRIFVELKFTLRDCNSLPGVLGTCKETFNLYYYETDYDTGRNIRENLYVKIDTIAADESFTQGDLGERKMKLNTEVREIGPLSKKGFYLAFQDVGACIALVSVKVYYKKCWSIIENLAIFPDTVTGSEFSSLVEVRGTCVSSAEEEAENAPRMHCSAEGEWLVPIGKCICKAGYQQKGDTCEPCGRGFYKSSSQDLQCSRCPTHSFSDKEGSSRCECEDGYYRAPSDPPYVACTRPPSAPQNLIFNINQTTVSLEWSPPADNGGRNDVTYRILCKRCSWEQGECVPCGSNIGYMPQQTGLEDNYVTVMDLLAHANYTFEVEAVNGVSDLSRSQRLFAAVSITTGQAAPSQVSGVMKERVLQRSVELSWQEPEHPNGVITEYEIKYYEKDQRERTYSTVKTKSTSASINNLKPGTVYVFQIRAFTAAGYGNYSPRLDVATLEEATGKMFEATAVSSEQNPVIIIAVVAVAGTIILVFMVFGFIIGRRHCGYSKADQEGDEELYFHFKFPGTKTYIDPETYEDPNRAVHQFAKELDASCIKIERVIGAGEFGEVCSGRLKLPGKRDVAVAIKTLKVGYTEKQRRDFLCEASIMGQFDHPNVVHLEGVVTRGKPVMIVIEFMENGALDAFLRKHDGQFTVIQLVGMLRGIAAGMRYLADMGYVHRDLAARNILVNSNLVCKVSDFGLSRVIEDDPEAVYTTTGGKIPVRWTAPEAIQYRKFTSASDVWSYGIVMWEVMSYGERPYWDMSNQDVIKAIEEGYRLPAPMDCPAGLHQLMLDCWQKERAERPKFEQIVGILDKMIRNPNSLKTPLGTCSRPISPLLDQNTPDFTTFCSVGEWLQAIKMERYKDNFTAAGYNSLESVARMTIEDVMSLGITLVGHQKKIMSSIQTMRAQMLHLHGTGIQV

NLK = target: T13, NLK (Homo sapiens, UniProt Q9UBE8)
T13 construct: purchased DiscoveRx KINOMEscan

BIKE = target: T14, BIKE (Homo sapiens, UniProt Q9NSY1)
T14 construct: purchased DiscoveRx KINOMEscan

EGFR(L861Q) = target: T15, EGFR(L861Q) (Homo sapiens, UniProt P00533, L861Q)
T15 construct: purchased DiscoveRx KINOMEscan

HPK1 = target: T16, HPK1 (Homo sapiens, UniProt Q92918)
T16 construct: purchased DiscoveRx KINOMEscan

PKAC-alpha = target: T17, PKAC-alpha (Homo sapiens, UniProt P17612)
T17 construct: purchased DiscoveRx KINOMEscan

SGK = target: T18, SGK (Homo sapiens, UniProt O00141)
T18 construct: purchased DiscoveRx KINOMEscan

HCK = target: T19, HCK (Homo sapiens, UniProt P08631)
T19 construct: purchased DiscoveRx KINOMEscan

YANK3 = target: T20, YANK3 (Homo sapiens, UniProt Q86UX6)
T20 construct: purchased DiscoveRx KINOMEscan
T20 sequence (Q86UX6 whole entry): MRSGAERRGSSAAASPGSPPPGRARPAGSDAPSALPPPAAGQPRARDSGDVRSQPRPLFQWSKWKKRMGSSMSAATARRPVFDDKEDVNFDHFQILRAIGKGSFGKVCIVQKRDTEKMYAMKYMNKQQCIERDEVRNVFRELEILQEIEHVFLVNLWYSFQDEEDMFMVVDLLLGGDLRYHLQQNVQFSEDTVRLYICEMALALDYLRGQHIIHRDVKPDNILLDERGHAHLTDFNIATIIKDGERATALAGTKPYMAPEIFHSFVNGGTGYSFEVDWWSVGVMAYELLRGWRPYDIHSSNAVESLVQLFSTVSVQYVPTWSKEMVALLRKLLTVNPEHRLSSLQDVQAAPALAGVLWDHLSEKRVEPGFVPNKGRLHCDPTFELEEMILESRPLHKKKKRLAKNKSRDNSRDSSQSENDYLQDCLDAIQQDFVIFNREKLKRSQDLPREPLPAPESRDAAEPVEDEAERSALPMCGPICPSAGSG

AKT3 = target: T21, AKT3 (Homo sapiens, UniProt Q9Y243)
T21 construct: purchased DiscoveRx KINOMEscan

EGFR(G719S) = target: T22, EGFR(G719S) (Homo sapiens, UniProt P00533, G719S)
T22 construct: purchased DiscoveRx KINOMEscan

JNK1 = target: T23, JNK1 (Homo sapiens, UniProt P45983)
T23 construct: purchased DiscoveRx KINOMEscan

MST2 = target: T24, MST2 (Homo sapiens, UniProt Q13188)
T24 construct: purchased DiscoveRx KINOMEscan

MAP3K1 = target: T25, MAP3K1 (Homo sapiens, UniProt Q13233)
T25 construct: purchased DiscoveRx KINOMEscan

TGFBR2 = target: T26, TGFBR2 (Homo sapiens, UniProt P37173)
T26 construct: purchased DiscoveRx KINOMEscan
T26 sequence (P37173 23-567): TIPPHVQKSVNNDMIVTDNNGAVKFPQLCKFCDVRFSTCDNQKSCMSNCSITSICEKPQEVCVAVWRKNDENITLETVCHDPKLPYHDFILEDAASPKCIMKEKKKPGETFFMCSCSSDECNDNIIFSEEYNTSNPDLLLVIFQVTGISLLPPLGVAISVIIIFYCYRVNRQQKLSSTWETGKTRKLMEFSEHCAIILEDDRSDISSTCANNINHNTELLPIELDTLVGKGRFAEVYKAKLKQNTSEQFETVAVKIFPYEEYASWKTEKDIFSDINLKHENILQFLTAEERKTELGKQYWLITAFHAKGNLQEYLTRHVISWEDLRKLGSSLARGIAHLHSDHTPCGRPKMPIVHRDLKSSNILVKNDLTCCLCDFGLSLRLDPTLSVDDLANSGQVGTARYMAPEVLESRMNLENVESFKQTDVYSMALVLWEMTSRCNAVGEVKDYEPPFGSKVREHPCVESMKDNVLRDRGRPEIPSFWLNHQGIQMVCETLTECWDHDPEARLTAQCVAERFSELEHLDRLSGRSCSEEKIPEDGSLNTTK

FRK = target: T27, FRK (Homo sapiens, UniProt P42685)
T27 construct: purchased DiscoveRx KINOMEscan

YSK1 = target: T28, YSK1 (Homo sapiens, UniProt O00506)
T28 construct: purchased DiscoveRx KINOMEscan

[5] = target: T29, JAK3(JH1domain-catalytic) (Homo sapiens, UniProt P52333)
T29 construct: JAK3(JH1domain-catalytic); purchased DiscoveRx KINOMEscan

MLK1 = target: T30, MLK1 (Homo sapiens, UniProt P80192)
T30 construct: purchased DiscoveRx KINOMEscan

IRAK1 = target: T31, IRAK1 (Homo sapiens, UniProt P51617)
T31 construct: purchased DiscoveRx KINOMEscan

EGFR = target: T32, EGFR (Homo sapiens, UniProt P00533)
T32 construct: purchased DiscoveRx KINOMEscan

CLK4 = target: T33, CLK4 (Homo sapiens, UniProt Q9HAZ1)
T33 construct: purchased DiscoveRx KINOMEscan
T33 sequence (Q9HAZ1 whole entry): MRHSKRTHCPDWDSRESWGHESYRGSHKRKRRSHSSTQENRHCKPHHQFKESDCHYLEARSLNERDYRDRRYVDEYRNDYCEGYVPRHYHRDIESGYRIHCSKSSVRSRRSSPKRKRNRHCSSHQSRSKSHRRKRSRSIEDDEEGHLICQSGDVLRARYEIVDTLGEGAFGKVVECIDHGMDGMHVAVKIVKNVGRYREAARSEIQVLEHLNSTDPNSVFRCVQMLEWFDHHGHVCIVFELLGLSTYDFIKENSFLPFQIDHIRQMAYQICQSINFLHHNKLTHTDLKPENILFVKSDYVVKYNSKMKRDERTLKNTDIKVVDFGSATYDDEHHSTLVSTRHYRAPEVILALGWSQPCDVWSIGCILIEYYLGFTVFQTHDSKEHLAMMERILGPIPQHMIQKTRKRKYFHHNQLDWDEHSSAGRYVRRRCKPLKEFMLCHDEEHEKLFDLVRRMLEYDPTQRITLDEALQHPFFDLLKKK

ABL1-phosphorylated = target: T34, ABL1-phosphorylated (Homo sapiens, UniProt P00519)
T34 construct: purchased DiscoveRx KINOMEscan

DRAK1 = target: T35, DRAK1 (Homo sapiens, UniProt Q9UEE5)
T35 construct: purchased DiscoveRx KINOMEscan
T35 sequence (Q9UEE5 whole entry): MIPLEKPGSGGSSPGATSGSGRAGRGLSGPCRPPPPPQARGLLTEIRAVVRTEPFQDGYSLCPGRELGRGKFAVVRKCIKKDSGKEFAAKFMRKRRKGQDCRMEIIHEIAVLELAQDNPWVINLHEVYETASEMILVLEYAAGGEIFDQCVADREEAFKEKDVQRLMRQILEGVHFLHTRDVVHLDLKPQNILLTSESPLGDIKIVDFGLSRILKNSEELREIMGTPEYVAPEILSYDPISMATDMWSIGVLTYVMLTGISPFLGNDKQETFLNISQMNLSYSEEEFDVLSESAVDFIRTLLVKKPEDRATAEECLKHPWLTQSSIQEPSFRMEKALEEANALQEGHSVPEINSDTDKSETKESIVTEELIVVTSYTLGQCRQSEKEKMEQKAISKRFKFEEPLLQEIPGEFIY

CDK9 = target: T36, CDK9 (Homo sapiens, UniProt P50750)
T36 construct: purchased DiscoveRx KINOMEscan

EGFR(L858R,T790M) = target: T37, EGFR(L858R,T790M) (Homo sapiens, UniProt P00533, L858R/T790M)
T37 construct: purchased DiscoveRx KINOMEscan

[6] = target: T38, TYK2(JH1domain-catalytic) (Homo sapiens, UniProt P29597)
T38 construct: TYK2(JH1domain-catalytic); purchased DiscoveRx KINOMEscan

RET(V804L) = target: T39, RET(V804L) (Homo sapiens, UniProt P07949, V804L)
T39 construct: purchased DiscoveRx KINOMEscan

TRKB = target: T40, TRKB (Homo sapiens, UniProt Q16620)
T40 construct: purchased DiscoveRx KINOMEscan
T40 sequence (Q16620 32-822): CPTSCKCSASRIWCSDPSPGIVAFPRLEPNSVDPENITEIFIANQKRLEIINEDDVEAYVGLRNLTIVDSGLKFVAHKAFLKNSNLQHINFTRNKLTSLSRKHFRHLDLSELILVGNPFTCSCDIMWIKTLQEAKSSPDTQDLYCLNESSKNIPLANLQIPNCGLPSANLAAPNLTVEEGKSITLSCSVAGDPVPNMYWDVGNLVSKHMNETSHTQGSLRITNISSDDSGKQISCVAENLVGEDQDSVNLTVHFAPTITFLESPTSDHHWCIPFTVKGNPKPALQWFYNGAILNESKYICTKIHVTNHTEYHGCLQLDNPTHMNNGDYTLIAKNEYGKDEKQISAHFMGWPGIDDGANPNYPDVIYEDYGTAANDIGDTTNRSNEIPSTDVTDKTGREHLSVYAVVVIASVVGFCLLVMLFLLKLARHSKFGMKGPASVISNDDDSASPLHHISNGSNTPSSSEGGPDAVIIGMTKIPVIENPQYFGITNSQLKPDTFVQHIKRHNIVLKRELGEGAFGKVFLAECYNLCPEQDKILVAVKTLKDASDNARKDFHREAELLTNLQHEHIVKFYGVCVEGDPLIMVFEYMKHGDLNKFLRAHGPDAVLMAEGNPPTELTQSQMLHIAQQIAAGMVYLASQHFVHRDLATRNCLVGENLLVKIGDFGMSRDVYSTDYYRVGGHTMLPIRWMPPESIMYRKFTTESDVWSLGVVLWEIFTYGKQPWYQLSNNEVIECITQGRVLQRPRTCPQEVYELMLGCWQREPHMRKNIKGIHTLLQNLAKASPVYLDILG

EPHB1 = target: T41, EPHB1 (Homo sapiens, UniProt P54762)
T41 construct: purchased DiscoveRx KINOMEscan

ROCK2 = target: T42, ROCK2 (Homo sapiens, UniProt O75116)
T42 construct: purchased DiscoveRx KINOMEscan

## Cc1nc(NC(=O)[C@@H](N)C(C)C)sc1-c1cnc(Cl)c(NS(=O)(=O)c2ccccc2)c1 [PI3KD-IN-015]
FGFR3
  KinomeScan FGFR3: 100
[1]
  KinomeScan ABL1(Y253F)-phosphorylated: 100
ERBB2
  KinomeScan ERBB2: 100
[2]
  KinomeScan ABL1(E255K)-phosphorylated: 77
ERK1
  KinomeScan ERK1: 100
DLK
  KinomeScan DLK: 99
STK36
  KinomeScan STK36: 100
KIT(L576P)
  KinomeScan KIT(L576P): 83
STK39
  KinomeScan STK39: 100
[3]
  KinomeScan TYK2(JH2domain-pseudokinase): 100
[4]
  KinomeScan ABL1(T315I)-phosphorylated: 98
EPHA7
  KinomeScan EPHA7: 100
NLK
  KinomeScan NLK: 92
BIKE
  KinomeScan BIKE: 73
EGFR(L861Q)
  KinomeScan EGFR(L861Q): 95
HPK1
  KinomeScan HPK1: 87
PKAC-alpha
  KinomeScan PKAC-alpha: 96
SGK
  KinomeScan SGK: 70
HCK
  KinomeScan HCK: 100
YANK3
  KinomeScan YANK3: 97
AKT3
  KinomeScan AKT3: 89
EGFR(G719S)
  KinomeScan EGFR(G719S): 100
JNK1
  KinomeScan JNK1: 100
MST2
  KinomeScan MST2: 87
MAP3K1
  KinomeScan MAP3K1: 96
TGFBR2
  KinomeScan TGFBR2: 100
FRK
  KinomeScan FRK: 97
YSK1
  KinomeScan YSK1: 100
[5]
  KinomeScan JAK3(JH1domain-catalytic): 98
MLK1
  KinomeScan MLK1: 100
IRAK1
  KinomeScan IRAK1: 60
EGFR
  KinomeScan EGFR: 100
CLK4
  KinomeScan CLK4: 100
ABL1-phosphorylated
  KinomeScan ABL1-phosphorylated: 85
DRAK1
  KinomeScan DRAK1: 91
CDK9
  KinomeScan CDK9: 100
EGFR(L858R,T790M)
  KinomeScan EGFR(L858R,T790M): 100
[6]
  KinomeScan TYK2(JH1domain-catalytic): 100
RET(V804L)
  KinomeScan RET(V804L): 97
TRKB
  KinomeScan TRKB: 100
EPHB1
  KinomeScan EPHB1: 100
ROCK2
  KinomeScan ROCK2: 85
